PubChem BioAssay AID1963597 (National Center for Advancing Translational Sciences (NCATS), 2024)

Test system: human liver microsomes, metabolic stability half-life
Experiment: NCATS Human Liver Microsomal (HLM) Stability Profiling
Settings: higher = more stable; screened at 1 µM (by protocol)
Procedure, shortened: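 Substrate depletion (in vitro t1/2): 1 µM compound with 0.5 mg/mL microsomes and NADPH regenerating system, phosphate buffer pH 7.4, 37 °C. Sampled at 0, 5, 10, 15, 30, 60 min into cold acetonitrile with albendazole internal standard for MS quantification.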

**Q.** Which half-life does the source give for `N#Cc1ccc(C(=O)Nc2ccc(Cl)c(-c3nc4ncccc4o3)c2)c(F)c1` here?
**A.** The half-life was 10.3 min.

**Q.** How did the half-life turn out when `CCCCNc1ncc(C(=O)NCc2ccc(-n3ccnc3)cc2)c(NC2CCC(O)CC2)n1` (configuration not stated) was run?
**A.** The half-life was 33 min.

**Q.** How did the half-life turn out when `c1cc(-c2cc(C3CCNCC3)[nH]n2)ccn1` was run?
**A.** Its half-life is 72.6 min.

**Q.** Which half-life does the source give for `O=C1c2ccccc2C(=O)C1C(=O)C(c1ccccc1)c1ccccc1` here?
**A.** The half-life was > 120 min.

**Q.** How did the half-life turn out when `CN1C(=O)COc2c(C(=O)NC3CN4CCC3CC4)cc(Cl)cc21` (configuration not stated) was run?
**A.** Its half-life is > 120 min.

**Q.** For `COc1ccccc1N1CCNCC1`, which half-life is on record?
**A.** Its half-life is > 120 min.

**Q.** With `CC(=O)c1ccc(O)c(C(N)=O)c1` as the compound, how does the half-life read?
**A.** The half-life was > 120 min.

**Q.** `C=Cc1cc(O)cc2nc(-c3ccc(O)c(F)c3)oc12` was tested. Which half-life did it give?
**A.** The half-life was 5.84 min.

**Q.** With `CC(=O)[C@H]1CC[C@H]2C3CC=C4C[C@@H](O)CC[C@]4(C)C3CC[C@]12C` (some centres not stated) as the compound, how does the half-life read?
**A.** Its half-life is 106 min.

**Q.** For `COc1cc(C(=O)N2CCCCCCC2)cc(OC)c1OC`, which half-life is on record?
**A.** The half-life was 29.3 min.

**Q.** Which half-life does the source give for `Cc1ccc(NC(=O)c2cccc(N(C)C)c2)cc1NC(=O)c1ccc(O)cc1` here?
**A.** Its half-life is 18.9 min.

**Q.** With `CN(C)c1cccc(Oc2cnc(Nc3cccc(O)c3)nc2)c1` as the compound, how does the half-life read?
**A.** The half-life was 21.9 min.

**Q.** `NS(=O)(=O)c1ccc(Cc2c(-c3cccc(-c4ccccc4)c3)nn(-c3nc(C(=O)O)cs3)c2CC2CC2)cc1` was tested. Which half-life did it give?
**A.** The half-life was 83.6 min.

**Q.** Which half-life does the source give for `C[C@]12CC[C@H]3[C@@H](CC[C@@]45O[C@H]4C(O)=C(C#N)C[C@]35C)[C@H]1CC[C@H]2O` here?
**A.** The half-life was 85 min.

**Q.** `O=C1CCC(c2ccccc2)(C2CCN(Cc3ccc(I)cc3)CC2)C(=O)N1` (configuration not stated) was tested. Which half-life did it give?
**A.** Its half-life is > 120 min.

**Q.** `O=C(Nc1ncc(-c2cc(C(F)F)nn2-c2c(Cl)cccc2Cl)s1)C1CC1` was tested. Which half-life did it give?
**A.** The half-life was > 120 min.

**Q.** For `COc1nccc(-c2c(-c3ccc(F)cc3)ncn2C2CCNCC2)n1`, which half-life is on record?
**A.** Its half-life is > 120 min.

**Q.** For `CC1(C)O[C@@H]2C[C@H]3[C@@H]4CCC5=CC(=O)C=C[C@]5(C)[C@@]4(F)[C@@H](O)C[C@]3(C)[C@]2(C(=O)CO)O1`, which half-life is on record?
**A.** Its half-life is 27.3 min.

**Q.** For `CCCCS(=O)(=O)N[C@@H](Cc1ccc(OCCCCC2CCNCC2)cc1)C(=O)O`, which half-life is on record?
**A.** Its half-life is > 120 min.

**Q.** How did the half-life turn out when `CN1CCN(C(=O)c2cc(-c3cccnc3)nc3c2cnn3C)CC1` was run?
**A.** The half-life was > 120 min.

**Q.** How did the half-life turn out when `CC#C[C@@H](CC(=O)O)c1ccc(OCc2ccc(CN3CCC4(C=Cc5ccccc54)CC3)s2)cc1` was run?
**A.** Its half-life is 25.1 min.

**Q.** For `O=C(N[C@H]1CCN(C(=O)c2cc(C(F)(F)F)cc(C(F)(F)F)c2)[C@H](Cc2ccc(Cl)cc2)C1)c1ccnc2ccccc12`, which half-life is on record?
**A.** The half-life was 49.2 min.

**Q.** For `COc1cccc(OC)c1-c1nc(C(=O)N[C@@H](CC(C)C)C(=O)O)cn1-c1ccnc2cc(Cl)ccc12`, which half-life is on record?
**A.** The half-life was > 120 min.

**Q.** With `O=C(C1CCCCC1)N1CC(=O)N2CCCc3ccccc3C2C1` (configuration not stated) as the compound, how does the half-life read?
**A.** The half-life was 20.8 min.

**Q.** Which half-life does the source give for `CCOP(=S)(OCC)Oc1cc(Cl)c(Br)cc1Cl` here?
**A.** Its half-life is 57.6 min.

**Q.** With `C[C@]12C=CC(=O)C=C1CCC1C3C[C@@H](O)[C@](O)(C(=O)CO)[C@@]3(C)C[C@H](O)[C@@]12F` (some centres not stated) as the compound, how does the half-life read?
**A.** The half-life was > 120 min.

**Q.** How did the half-life turn out when `COCCn1c(SCC(=O)Nc2ccc(F)c(Cl)c2)nc2c(oc3ccccc32)c1=O` was run?
**A.** Its half-life is 7.26 min.

**Q.** Which half-life does the source give for `O=C(Nc1ccccc1Br)NC1CCN(c2ccc(C(F)(F)F)cn2)C1` (configuration not stated) here?
**A.** The half-life was 120 min.

**Q.** For `CC1COC2(c3ccccc3Cl)c3cc(Cl)ccc3NC(=O)CN12` (configuration not stated), which half-life is on record?
**A.** Its half-life is 9.03 min.

**Q.** Which half-life does the source give for `CCC1CCCCN1CC(=O)N1CCCc2c1c(=O)oc1ccc(OCc3ccccc3)cc21` (configuration not stated) here?
**A.** The half-life was 0.54 min.

**Q.** For `Fc1ccc([C@@H]2CCNC[C@H]2COc2ccc3c(c2)OCO3)cc1`, which half-life is on record?
**A.** Its half-life is 71.3 min.

**Q.** `Oc1c(Cl)cc(Cl)c2cccnc12` was tested. Which half-life did it give?
**A.** Its half-life is 25.2 min.

**Q.** For `CCc1c(O)cc(O)c(C(=O)c2ccc(OCCN3CCOCC3)c(OC)c2)c1CC(=O)N(CCOC)CCOC`, which half-life is on record?
**A.** The half-life was 41.4 min.

**Q.** For `CC(CCc1ccc(O)cc1)NCC(O)c1ccc(O)cc1` (configuration not stated), which half-life is on record?
**A.** Its half-life is > 120 min.

**Q.** How did the half-life turn out when `CCNC1(C(N)=O)CN(c2nc(C)nc3c(-c4ccc(Cl)cc4)c(-c4ccccc4Cl)nn23)C1` was run?
**A.** The half-life was 20.5 min.

**Q.** `COc1ccc(-c2cc(=S)ss2)cc1` was tested. Which half-life did it give?
**A.** Its half-life is 0.73 min.

**Q.** How did the half-life turn out when `COc1ccc(CN(CCN(C)C)c2ncccn2)cc1` was run?
**A.** The half-life was 8.72 min.

**Q.** How did the half-life turn out when `Nc1nc2c(c(N3CCNCC3)n1)CCC1=C2[C@@H]2CCCC[C@@H]2O1` was run?
**A.** Its half-life is > 120 min.

**Q.** Which half-life does the source give for `CCC(CC)n1ccc2c(C(=O)NCc3c(C)cc(C)[nH]c3=O)cc(C#N)cc21` here?
**A.** Its half-life is 3.94 min.

**Q.** Which half-life does the source give for `Cc1ccc(C(=O)c2cc(O)c(O)c([N+](=O)[O-])c2)cc1` here?
**A.** Its half-life is 34.1 min.

**Q.** With `O=c1c2cccnc2n(-c2cccc([N+](=O)[O-])c2)c(=O)n1Cc1ccncc1` as the compound, how does the half-life read?
**A.** The half-life was 24.5 min.

**Q.** `c1ccc(-c2cnc(Nc3ccc(OCCN4CCCC4)cc3)s2)cc1` was tested. Which half-life did it give?
**A.** Its half-life is 103 min.

**Q.** For `CC(C)c1nn(-c2c(Cl)cccc2Cl)c2nc(Cc3ccc(OCCO)cc3)[nH]c(=O)c12`, which half-life is on record?
**A.** Its half-life is 32.2 min.

**Q.** For `CC(C)(CNC(=O)c1cccc(-c2noc(C(F)(F)F)n2)c1)c1coc(-c2ccccc2)n1`, which half-life is on record?
**A.** The half-life was 33.1 min.

**Q.** `CCCC(Nc1nc(-c2ccc(NC(=O)NCC)c(OC)c2)ncc1C)c1cccnc1` (configuration not stated) was tested. Which half-life did it give?
**A.** The half-life was 30.5 min.

**Q.** Which half-life does the source give for `O=C1c2ccccc2S(=O)(=O)N1CCCCN1CCN(c2ncccn2)CC1` here?
**A.** Its half-life is 24.5 min.

**Q.** For `CC1=C(C(=O)Nc2cc3cn[nH]c3cc2F)C(c2ccc(Cl)cc2F)N=C(c2ccnc(Cl)c2)N1` (configuration not stated), which half-life is on record?
**A.** Its half-life is 14.2 min.

**Q.** For `CN(C)CCC[C@@]1(c2ccc(F)cc2)OCc2cc(C#N)ccc21`, which half-life is on record?
**A.** The half-life was > 120 min.

**Q.** For `CN1CCCC(CC2c3ccccc3Sc3ccccc32)C1` (configuration not stated), which half-life is on record?
**A.** Its half-life is 48.7 min.

**Q.** With `CCOc1cccc(NC(=O)c2ccc(N3CCCC3)c(C(F)(F)F)c2)c1` as the compound, how does the half-life read?
**A.** Its half-life is 23 min.

**Q.** For `N#Cc1cc(-c2n[nH]c(-c3ccncc3)n2)ccn1`, which half-life is on record?
**A.** Its half-life is 90.6 min.

**Q.** `O=C(O)c1ccc(Nc2ncc3c(n2)-c2ccc(Cl)cc2C(c2c(F)cccc2F)=NC3)cc1` was tested. Which half-life did it give?
**A.** Its half-life is 46.9 min.
